Active and inactive are the calls of the source. No cut-off for these calls is given here.
Experiments:
[1] = target: T1, 5-hydroxytryptamine receptor 2A (Homo sapiens, UniProt P28223); experiment: Agonist activity at human 5-HT2A receptor expressed in HEK293 cells assessed as maximal IP2 production measured after 30 mins incubation by HTRF assay relative to control; assay type: functional, cell-based; conditions: filed as agonist
[2] = target: T1, 5-hydroxytryptamine receptor 2A; experiment: Agonist activity at human 5-HT2A receptor expressed in HEK293 cells assessed as IP2 production measured after 30 mins incubation by HTRF assay; assay type: functional, cell-based; conditions: read-out: EC50
[3] = system: Mus musculus; experiment: Psychedelic effect in C57BL/6J mouse assessed as number of head-twitch responses by visual observation at 3 to 30 mg/kg, po; assay type: functional, organism-based; conditions: dose 3-30 mg/kg
[4] = target: T1, 5-hydroxytryptamine receptor 2A; experiment: Displacement of [3H]LSD from human 5-HT2A receptor expressed in HEK293 cell membrane incubated for 90 mins by microbeta liquid scintillation counting method; assay type: cell membranes
[5] = target: T2, 5-hydroxytryptamine receptor 2C (Homo sapiens, UniProt P28335); experiment: Displacement of [3H]LSD from human 5-HT2C receptor expressed in HEK293 cell membrane incubated for 90 mins by microbeta liquid scintillation counting method; assay type: cell membranes
T2 sequence (P28335 whole entry): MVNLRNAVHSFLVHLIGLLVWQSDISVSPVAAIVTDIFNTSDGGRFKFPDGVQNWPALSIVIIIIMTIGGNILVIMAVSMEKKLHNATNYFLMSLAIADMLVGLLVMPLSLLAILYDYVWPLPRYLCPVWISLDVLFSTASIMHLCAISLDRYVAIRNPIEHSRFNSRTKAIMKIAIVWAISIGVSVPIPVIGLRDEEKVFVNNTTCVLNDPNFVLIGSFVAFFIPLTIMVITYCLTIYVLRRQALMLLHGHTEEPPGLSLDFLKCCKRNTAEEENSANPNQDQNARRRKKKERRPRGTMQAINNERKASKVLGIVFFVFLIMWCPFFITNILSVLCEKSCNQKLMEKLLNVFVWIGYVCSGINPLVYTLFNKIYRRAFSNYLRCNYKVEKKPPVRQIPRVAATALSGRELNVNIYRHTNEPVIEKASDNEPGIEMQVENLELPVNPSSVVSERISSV

[6] = system: Mus musculus; experiment: Psychedelic effect in C57BL/6J mouse assessed as number of head-twitch responses by visual observation at 3 mg/kg, po measured for 3 mins at 5 to 25 min; assay type: functional; conditions: 0.05 h
[7] = target: 5-hydroxytryptamine receptor 2B (Homo sapiens, UniProt P41595); experiment: Displacement of [3H]LSD from human 5-HT2B receptor expressed in HEK293 cell membrane incubated for 90 mins by microbeta liquid scintillation counting method; assay type: cell membranes
[8] = system: Mus musculus; experiment: Psychedelic effect in C57BL/6J mouse assessed as number of head-twitch responses by visual observation at 3 mg/kg, po measured for 3 mins at 160 to 170 min; assay type: functional; conditions: 0.05 h
[9] = Metabolic stability of the compound assessed as recombinant human MAO-mediated oxidative metabolism by measuring compound remaining measured upto 120 mins by LC-MS/MS analysis; assay type: ADME; conditions: 2 h
[10] = Metabolic stability in Sprague-Dawley rat liver microsomes assessed as deuteration effect measured upto 120 mins by LC-MS/MS analysis; assay type: ADME, Microsome; conditions: 2 h
[11] = Lipophilicity, logP of the compound; assay type: physicochemical; conditions: octanol/water

Chain of 5-hydroxytryptamine receptor 2B (P41595 whole entry): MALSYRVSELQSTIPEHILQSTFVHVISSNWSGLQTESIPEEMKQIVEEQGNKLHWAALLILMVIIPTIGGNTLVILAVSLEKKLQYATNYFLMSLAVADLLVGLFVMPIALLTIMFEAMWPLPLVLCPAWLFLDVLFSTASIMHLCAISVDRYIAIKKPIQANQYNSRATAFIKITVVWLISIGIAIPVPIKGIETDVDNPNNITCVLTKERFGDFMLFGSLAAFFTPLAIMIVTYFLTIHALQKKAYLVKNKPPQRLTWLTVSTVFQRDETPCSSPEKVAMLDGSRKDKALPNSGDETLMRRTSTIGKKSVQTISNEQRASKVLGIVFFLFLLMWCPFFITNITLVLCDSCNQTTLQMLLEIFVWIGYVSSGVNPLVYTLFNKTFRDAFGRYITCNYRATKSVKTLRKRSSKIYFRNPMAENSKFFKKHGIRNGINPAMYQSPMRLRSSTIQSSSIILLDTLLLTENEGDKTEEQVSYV
T1 sequence (P28223 whole entry): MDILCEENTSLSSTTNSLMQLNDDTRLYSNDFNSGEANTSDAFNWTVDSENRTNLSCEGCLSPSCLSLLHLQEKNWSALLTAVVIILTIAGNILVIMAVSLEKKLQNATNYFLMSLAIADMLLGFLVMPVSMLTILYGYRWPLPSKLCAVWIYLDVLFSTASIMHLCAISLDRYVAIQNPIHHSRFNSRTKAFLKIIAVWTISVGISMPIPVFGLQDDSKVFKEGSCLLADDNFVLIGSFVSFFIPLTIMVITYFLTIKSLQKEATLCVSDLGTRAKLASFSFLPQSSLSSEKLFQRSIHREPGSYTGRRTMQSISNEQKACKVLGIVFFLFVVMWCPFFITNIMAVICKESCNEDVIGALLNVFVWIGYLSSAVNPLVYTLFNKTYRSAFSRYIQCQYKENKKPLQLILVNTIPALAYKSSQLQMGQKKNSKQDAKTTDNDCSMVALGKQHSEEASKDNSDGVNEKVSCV

## COc1cc(SC(F)(F)F)c(OC)cc1CCNCC1CC1
[1]
  Emax: 63%
[2]
  EC50: 48 nM
[3]
  Activity: inactive
[4]; read-out: Ki
  Ki: 8.9 nM

## COc1cc(SCCC(F)F)c(OC)cc1CCN.Cl
[5]
  Ki: 8.9 nM
[6]
  Activity: 5
[7]
  Ki: 6.8 nM
[8]
  Activity: 2.6
[4]; read-out: Ki
  Ki: 23 nM

## Cl.[2H]C([2H])([2H])Oc1cc(SC)c(OC([2H])([2H])[2H])cc1C[C@H](C)N
[9]
  Stability: Stable
[10]
  Stability: Stable

## COc1cc(SCCCCF)c(OC)cc1CCN
[4]; read-out: Ki
  Ki: 47 nM

## COc1cc(S(=O)(=O)C(C)(C)C)c(OC)cc1CCN
[2]
  EC50: 530 nM

## COc1cc(SCC(F)F)c(OC)cc1CCN
[4]; read-out: Ki
  Ki: 146 nM

## Cl.[2H]C([2H])([2H])Oc1cc(C(C)(C)C)c(OC([2H])([2H])[2H])cc1CCN
[9]
  Stability: Stable
[10]
  Stability: Stable

## COc1cc(C(=O)C(C)(C)C)c(OC)cc1CCN
[11]
  logP: 2.34
[2]
  EC50: 850 nM

## Cl.[2H]C([2H])([2H])Oc1cc(SC)c(OC([2H])([2H])[2H])cc1CCN
[9]
  Stability: Stable
[10]
  Stability: Stable

## C#CCSc1cc(OC)c(CCN)cc1OC
[1]
  Emax: 100%
[2]
  EC50: 0.67 nM

## COc1cc(C[C@H](C)N)c(O)cc1SC.Cl
[9]
  Stability: Stable
[10]
  Stability: Stable

## COc1cc(SCC(F)(F)C(F)F)c(OC)cc1CCN.Cl
[5]
  Ki: 11 nM
[6]
  Activity: 3.1
[7]
  Ki: 4.5 nM
[8]
  Activity: 5.6
[4]; read-out: Ki
  Ki: 34 nM
[4]; read-out: pKi (converted)
  Ki: 38 nM

## COc1cc(SC(F)F)c(OC)cc1CCN.Cl
[5]
  Ki: 16 nM
[6]
  Activity: 33
[7]
  Ki: 24 nM
[8]
  Activity: 17
[4]; read-out: pKi (converted)
  Ki: 6.46 nM

## COc1cc(SCC#N)c(OC)cc1CCN
[1]
  Emax: 77%
[2]
  EC50: 6.1 nM
[4]; read-out: Ki
  Ki: 36 nM

## COc1cc(S(=O)(=O)CF)c(OC)cc1CCN.Cl
[5]
  Ki: 26 nM
[6]
  Activity: 1.7
[7]
  Ki: 28 nM
[8]
  Activity: 2.3
[4]; read-out: Ki
  Ki: 5.9 nM
[4]; read-out: pKi (converted)
  Ki: 6.03 nM

## Cl.[2H]C([2H])(N)Cc1cc(OC)c(C(F)(F)F)cc1OC
[9]
  Stability: Stable
[10]
  Stability: Stable

## Cl.[2H]C([2H])([2H])Oc1cc(SC)c(OC([2H])([2H])[2H])cc1C[C@@H](C)N
[9]
  Stability: Stable
[10]
  Stability: Stable

## COc1cc([S+]([O-])C(F)F)c(OC)cc1CCN.Cl (stereo not drawn)
[5]
  Ki: 82 nM
[6]
  Activity: 3
[7]
  Ki: 26 nM
[8]
  Activity: 4
[4]; read-out: Ki
  Ki: 27 nM

## Cl.[2H]C([2H])([2H])Oc1cc(C(F)(F)F)c(OC([2H])([2H])[2H])cc1CCN
[9]
  Stability: Stable
[10]
  Stability: Stable

## COc1cc(S(=O)(=O)C(F)(F)F)c(OC)cc1CCN.Cl
[5]
  Ki: 13 nM
[6]
  Activity: 26
[7]
  Ki: 8.4 nM
[8]
  Activity: 28
[4]; read-out: Ki
  Ki: 1.9 nM

## C#CCCCSc1cc(OC)c(CCN)cc1OC
[1]
  Emax: 78%
[2]
  EC50: 1.8 nM
[4]; read-out: Ki
  Ki: 2.3 nM

From ChEMBL document CHEMBL5543140 (J Med Chem, 2024)
